From patent US10307407B2, “9H-pyrimido [4,5-B] indoles as BET bromodomain inhibitors” (THE REGENTS OF THE UNIVERSITY OF MICHIGAN, priority 2015, dated 2019)

Key:
[1] = tested on: MV4-11 cells; experiment: Cell growth inhibition, 4-day proliferation assay, MV4-11; type: cell-based; conditions: Homo sapiens, MV4-11, 96 h, acute leukemia cell line, 4 days treatment
Description: (§1) The effect of representative Compounds of the Disclosure on cell viability was determined in a 4-day proliferation assay. Cells were maintained in the appropriate culture medium with 10% FBS at 37° C. and an atmosphere of 5% CO2. All the cell lines were used within three months of thawing fresh vials.
(§2) Cells were seeded in 96-well flat bottom (Corning COSTAR, Corning, NY, cat#3595) or white opaque cell culture plates (BD Falcon, cat#353296) at a density of 3,000-10,000 cells/well in 75 μl of culture medium. Compounds were serially diluted in the appropriate medium, and 75 μl of the diluted compounds were added to the appropriate wells of the cell plate. After the addition of compounds, the cells were incubated at 37° C. in an atmosphere of 5% CO2 for 4 days. Cell viability was determined using the CellTiter-Glo® Luminescent Cell Viability Assay Kit (Promega, Madison, Wis.) for RS4-11 and MV4-11 cells and WST (2-(2-methoxy-4-nitrophenyl)-3-(4-nitrophenyl)-5-(2,4-disulfophenyl)-2H-tetrazolium, monosodium salt) Cell Counting-8 Kit (Dojindo Molecular Technologies, Inc., Rockville, Md.) for MDA-MB-231 cells according to the manufacturers' instructions.
For CellTiter-Glo assay (RS4-11 and MV4-11 cells), 100 μl of CellTiter-Glo® Reagent was added to each well, and then the plates were incubated at room temperature for 10-20 minutes. The luminescent signal was measured using a Tecan Infinite M1000 multimode microplate reader (Tecan, Morrisville, N.C.). The readings were normalized to the DMSO-treated cells and the IC50 was calculated by nonlinear regression (four parameters sigmoid fitted with variable slope, least squares fit, and no constraint) analysis using the GraphPad Prism 5 software.
(§3) Cell growth inhibition of representative Compounds of the Disclosure in representative breast cancer (MDA-MB-231), acute leukemia (MV4-11), and prostate cancer cell lines (LNCaP), as determined by a WST assay, are presented in Table 3. Cells were treated with each inhibitor for 4 days.

[2] = molecular target: T1, recombinant BRD4 BD2 (Homo sapiens, UniProt O60885); experiment: Competitive fluorescence-polarization (FP) binding assay, BRD4 BD2; conditions: FAM labeled probe 1.5 nM, protein 6 nM, pH 6.5
T1 construct: recombinant BRD4 BD1 and BRD4 BD2 proteins
Description: (§4) Fluorescence Polarization (FP) competitive binding studies were carried out using a FAM labeled fluorescent probe (ZBA248 or BRD-1F) to determine binding affinities of representative Compounds of the Disclosure for recombinant BRD4 BD1 and BRD4 BD2 proteins. For example, equilibrium dissociation constants (Kd) values of ZBA248 to these six proteins were determined from protein saturation experiments by monitoring the total fluorescence polarization of mixtures composed with the fluorescent probe at a fixed concentration and proteins with increasing concentrations up to full saturation. Serial dilutions of testing protein were mixed with ZBA248 to a final volume of 200 μl in the assay buffer. In order to achieve large dynamic rages, particularly for BD1 bromodomains, 100 mM phosphate buffer (pH=6.5, 0.01% Triton X-100 (Sigma, 282103) being added right before assays) was used as the assay buffer. Final ZBA248 concentration was 1.5 nM for all proteins. Plates were incubated at room temperature for 30 minutes with gentle shaking to assure equilibrium. FP values in millipolarization units (mP) were measured using the Infinite M-1000 plate reader (Tecan U.S., Research Triangle Park, N.C.) in Microfluor 1 96-well, black, round-bottom plates (Thermo Scientific, Waltham, Mass.) at an excitation wavelength of 485 nm and an emission wavelength of 530 nm. Kd values of ZBA248 were calculated by fitting the sigmoidal dose-dependent FP increases as a function of protein concentrations using Graphpad Prism 6.0 software (Graphpad Software, San Diego, Calif.).
(§5) The IC50 and Ki values of representative Compounds of the Disclosure were determined in a competitive binding experiment as described above. Mixtures of 10 μl of the tested compounds in assay buffer with 40% Ethylene Glycol and 190 μl of preincubated protein/probe complex solution in the assay buffer (100 mM potassium phosphate, pH 6.5, 0.01% Triton X-100) were added into assay plates which were incubated at room temperature for 30 minutes with gentle shaking. Final concentrations of proteins were 10 and 6 nM in assays for BD1 and BD2 of BRD4, respectively. Final probe concentration is 1.5 nM in all assays. Negative controls containing protein/probe complex only (equivalent to 0% inhibition), and positive controls containing only free probes (equivalent to 100% inhibition), were included in each assay plate. FP values were measured as described above. IC50 values were determined by nonlinear regression fitting of the competition curves. Instead of being calculated from IC50 values as described before, Ki values of competitive inhibitors were obtained directly by nonlinear regression fitting as well, based upon the Kd values of the probe to different proteins, and concentrations of the proteins and probes in the competitive assays (Wang, FEBS Lett. 360; 111 (1995); Zhang et al., Analytical Biochemistry, 331; 138 (2004)).
(§6) Binding affinities of representative Compounds of the Disclosure to BRD4 BD1 and BRD4 BD2 proteins in competitive, fluorescence-polarization assays are presented in Table 2.

[3] = tested on: MDA-MB-231 cells; experiment: Cell growth inhibition, 4-day proliferation assay (WST), MDA-MB-231; type: cell-based; conditions: Homo sapiens, MDA-MB-231, 96 h, breast cancer cell line, 4 days treatment
Description: as §1, §2
For WST assay (MDA-MB-231 cells), WST-8 reagent was added to each well at a final concentration of 10% (v/v), and then the plates were incubated at 37° C. for 1-2 hours for color development. The absorbance was measured at 450 nm using a SPECTRAmax PLUS plate reader (Molecular Devices, Sunnyvale, Calif.). The readings were normalized to the DMSO-treated cells and the half maximal inhibitory concentration (IC50) was calculated by nonlinear regression (four parameters sigmoid fitted with variable slope, least squares fit, and no constraint) analysis using the GraphPad Prism 5 software (GraphPad Software, La Jolla, Calif.).
as §3

[4] = molecular target: T2, recombinant BRD4 BD1 (Homo sapiens, UniProt O60885); experiment: Competitive fluorescence-polarization (FP) binding assay, BRD4 BD1; conditions: FAM labeled probe 1.5 nM, protein 10 nM, pH 6.5
T2 construct: recombinant BRD4 BD1 and BRD4 BD2 proteins
Description: as §4, §5, §6

[5] = tested on: LNCaP cells; experiment: Cell growth inhibition, 4-day proliferation assay, LNCaP; type: cell-based; conditions: Homo sapiens, 96 h, prostate cancer cell line, 4 days treatment
Description: as §1, §2, §3

IC50 [1]: 3 nM
IC50 [2]: 2.4 nM
IC50 [3]: 13 nM
IC50 [4]: 5.5 nM
IC50 [5]: 3 nM
SMILES: CCn1nc(C2CC2)cc1Nc1nc(COC)nc2[nH]c3cc(-c4c(C)noc4C)c(OC)cc3c12 [Cpd. No. 5, N-(3-cyclopropyl-1-ethyl-1H-pyrazol-5-yl)-7-(3,5-dimethylisoxazol-4-yl)-6-methoxy-2-(methoxymethyl)-9H-pyrimido[4,5-b]indol-4-amine]
